The results in this text go back to patent US20240101540A1, “TARGETED PROTEIN DEGRADATION OF PARP14 FOR USE IN THERAPY” (Ribon Therapeutics, Inc., priority 2022, published 2024).

Each structure is given as a SMILES string. Counter-ions that a name gives are not always drawn.

The experiment deals with T1, catalytic domain of human PARP14 (residues 1611 to 1801) with NanoLuc tag (Homo sapiens, UniProt Q460N5).
T1 construct: expressed in transfected cells; host or cells: HEK-293T cells (ATCC), pcDNA3.1(-) vector
T1 sequence (Q460N5 1611-1801): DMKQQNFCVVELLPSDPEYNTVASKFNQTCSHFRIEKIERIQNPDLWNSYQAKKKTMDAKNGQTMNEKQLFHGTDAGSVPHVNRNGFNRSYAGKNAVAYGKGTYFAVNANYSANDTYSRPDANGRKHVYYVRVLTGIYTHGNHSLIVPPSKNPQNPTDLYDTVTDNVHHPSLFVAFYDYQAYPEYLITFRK
In words: NanoLuc assay for the degradation of PARP14 (NanoLuc-tagged PARP14 overexpressed in HEK-293T cells, 2 hours). The settings on record: Assay A (Example A): NanoLuc-tagged PARP14 degradation in HEK-293T cells, read-out: DC50. It is filed as cell-based.
For `O=C1CCC(N2C(=O)c3ccc(C#CCN4CCC(COc5cc(F)c6c(=O)[nH]c(CSC7CCOCC7)nc6c5)CC4)cc3C2=O)C(=O)N1` (stereo not shown) [Example 27, 2-(2,6-dioxopiperidin-3-yl)-5-(3-(4-(((5-fluoro-4-oxo-2-(((tetrahydro-2H-pyran-4-yl)thio)methyl)-3,4-dihydroquinazolin-7-yl)oxy)methyl)piperidin-1-yl)prop-1-yn-1-yl)isoindoline-1,3-dione], the DC50 was under 100 nM.
As for `O=C1CCC(Nc2ccc(N3CC4CC(C3)N4CCN3CCC(COc4cc(F)c5c(=O)[nH]c(CSC6CCOCC6)nc5c4)CC3)cc2)C(=O)N1` (stereo not shown) [Example 73, 3-((4-(6-(2-(4-(((5-fluoro-4-oxo-2-(((tetrahydro-2H-pyran-4-yl)thio)methyl)-3,4-dihydroquinazolin-7-yl)oxy)methyl)piperidin-1-yl)ethyl)-3,6-diazabicyclo[3.1.1]heptan-3-yl)phenyl)amino)piperidine-2,6-dione], the figure is under 100 nM; as for `O=C1CCC(N2C(=O)c3cccc(NCCCOCCC(=O)N4CCC(COc5cc(F)c6c(=O)[nH]c(CSC7CCOCC7)nc6c5)CC4)c3C2=O)C(=O)N1` (stereo not shown) [Example 10, 2-(2,6-dioxopiperidin-3-yl)-4-((3-(3-(4-(((5-fluoro-4-oxo-2-(((tetrahydro-2H-pyran-4-yl)thio)methyl)-3,4-dihydroquinazolin-7-yl)oxy)methyl)piperidin-1-yl)-3-oxopropoxy)propyl)amino)isoindoline-1,3-dione], under 100 nM.
Next, `O=C1CCC(N2C(=O)c3cccc(N4CCC(CN5CCC(COc6cc(F)c7c(=O)[nH]c(CSC8CCOCC8)nc7c6)CC5)CC4)c3C2=O)C(=O)N1` (stereo not shown) [Example 35, 2-(2,6-dioxopiperidin-3-yl)-4-(4-((4-(((5-fluoro-4-oxo-2-(((tetrahydro-2H-pyran-4-yl)thio)methyl)-3,4-dihydroquinazolin-7-yl)oxy)methyl)piperidin-1-yl)methyl)piperidin-1-yl)isoindoline-1,3-dione]: under 100 nM; `O=C1CCC(N2C(=O)c3cccc(NCCCCCCCCC(=O)N4CCC(COc5cc(F)c6c(=O)[nH]c(CSC7CCOCC7)nc6c5)CC4)c3C2=O)C(=O)N1` (stereo not shown) [Example 9, 2-(2,6-dioxopiperidin-3-yl)-4-((9-(4-(((5-fluoro-4-oxo-2-(((tetrahydro-2H-pyran-4-yl)thio)methyl)-3,4-dihydroquinazolin-7-yl)oxy)methyl)piperidin-1-yl)-9-oxononyl)amino)isoindoline-1,3-dione]: under 100 nM.
Regarding `O=C1CCC(N2C(=O)c3cccc(N4CCC(CN5CCC(C(=O)N6CCC(COc7cc(F)c8c(=O)[nH]c(CSC9CCOCC9)nc8c7)CC6)CC5)CC4)c3C2=O)C(=O)N1` (stereo not shown) [Example 20, 2-(2,6-dioxopiperidin-3-yl)-4-(4-((4-(4-(((5-fluoro-4-oxo-2-(((tetrahydro-2H-pyran-4-yl)thio)methyl)-3,4-dihydroquinazolin-7-yl)oxy)methyl)piperidine-1-carbonyl)piperidin-1-yl)methyl)piperidin-1-yl)isoindoline-1,3-dione], the DC50 was under 100 nM.
As for `O=C1CCC(Nc2ccc(N3CC4CCC(C3)N4CCN3CCC(COc4cc(F)c5c(=O)[nH]c(CSC6CCOCC6)nc5c4)CC3)cc2)C(=O)N1` (stereo not shown) [Example 95, 3-((4-(8-(2-(4-(((5-fluoro-4-oxo-2-(((tetrahydro-2H-pyran-4-yl)thio)methyl)-3,4-dihydroquinazolin-7-yl)oxy)methyl)piperidin-1-yl)ethyl)-3,8-diazabicyclo[3.2.1]octan-3-yl)phenyl)amino)piperidine-2,6-dione], the figure is under 100 nM; as for `O=C1CCC(Nc2ccc(O[C@@H]3C[C@@H]4CN(CCN5CCC(COc6cc(F)c7c(=O)[nH]c(CSC8CCOCC8)nc7c6)CC5)C[C@@H]4C3)cc2)C(=O)N1` (stereo partly drawn) [Example 76, 3-((4-(((3aR,51,6aS)-2-(2-(4-(((5-fluoro-4-oxo-2-(((tetrahydro-2H-pyran-4-yl)thio)methyl)-3,4-dihydroquinazolin-7-yl)oxy)methyl)piperidin-1-yl)ethyl)octahydrocyclopenta[c]pyrrol-5-yl)oxy)phenyl)amino)piperidine-2,6-dione], under 100 nM; as for `O=C1CCC(Nc2ccc(N3CCN(CCN4CCC(COc5cc(F)c6c(=O)[nH]c(COC7CCOCC7)nc6c5)CC4)CC3)cc2)C(=O)N1` (stereo not shown) [Example 68, 3-((4-(4-(2-(4-(((5-fluoro-4-oxo-2-(((tetrahydro-2H-pyran-4-yl)oxy)methyl)-3,4-dihydroquinazolin-7-yl)oxy)methyl)piperidin-1-yl)ethyl)piperazin-1-yl)phenyl)amino)piperidine-2,6-dione], under 100 nM.
Next, `O=C1CCC(Nc2ccc(OCCN3CCC(COc4cc(F)c5c(=O)[nH]c(CSC6CCOCC6)nc5c4)CC3)cc2)C(=O)N1` (stereo not shown) [Example 58, 3-((4-(2-(4-(((5-fluoro-4-oxo-2-(((tetrahydro-2H-pyran-4-yl)thio)methyl)-3,4-dihydroquinazolin-7-yl)oxy)methyl)piperidin-1-yl)ethoxy)phenyl)amino)piperidine-2,6-dione]: under 100 nM.
Next, `O=C1CCC(Nc2ccc(N3CCC(N4CCN(CCc5cc(F)c6c(=O)[nH]c(CSC7CCOCC7)nc6c5)CC4)CC3)cc2)C(=O)N1` (stereo not shown) [Example 86, 3-((4-(4-(4-(2-(5-fluoro-4-oxo-2-(((tetrahydro-2H-pyran-4-yl)thio)methyl)-3,4-dihydroquinazolin-7-yl)ethyl)piperazin-1-yl)piperidin-1-yl)phenyl)amino)piperidine-2,6-dione]: under 100 nM; `O=C1CCC(N2C(=O)c3cccc(NCCCCCCC(=O)N4CCC(COc5cc(F)c6c(=O)[nH]c(CSC7CCOCC7)nc6c5)CC4)c3C2=O)C(=O)N1` (stereo not shown) [Example 11, 2-(2,6-dioxopiperidin-3-yl)-4-((7-(4-(((5-fluoro-4-oxo-2-(((tetrahydro-2H-pyran-4-yl)thio)methyl)-3,4-dihydroquinazolin-7-yl)oxy)methyl)piperidin-1-yl)-7-oxoheptyl)amino)isoindoline-1,3-dione]: under 100 nM.
On to `O=C1CCC(N2C(=O)c3ccc(N4CCN(CCN5CCC(COc6cc(F)c7c(=O)[nH]c(CSC8CCOCC8)nc7c6)CC5)CC4)cc3C2=O)C(=O)N1` (stereo not shown) [Example 62, 2-(2,6-dioxopiperidin-3-yl)-5-(4-(2-(4-(((5-fluoro-4-oxo-2-(((tetrahydro-2H-pyran-4-yl)thio)methyl)-3,4-dihydroquinazolin-7-yl)oxy)methyl)piperidin-1-yl)ethyl)piperazin-1-yl)isoindoline-1,3-dione], for which the DC50 was under 100 nM.
Regarding `CN(c1ccc(N2CCN(CCN3CCC(COc4cc(F)c5c(=O)[nH]c(CSC6CCOCC6)nc5c4)CC3)CC2)cc1)C1CCC(=O)NC1=O` (stereo not shown) [Example 66, 3-((4-(4-(2-(4-(((5-fluoro-4-oxo-2-(((tetrahydro-2H-pyran-4-yl)thio)methyl)-3,4-dihydroquinazolin-7-yl)oxy)methyl)piperidin-1-yl)ethyl)piperazin-1-yl)phenyl)(methyl)amino)piperidine-2,6-dione], the DC50 was under 100 nM.
Next, `O=C1CCC(Nc2ccc(C(=O)N3CCC(COc4cc(F)c5c(=O)[nH]c(CSC6CCOCC6)nc5c4)CC3)cc2)C(=O)N1` (stereo not shown) [Example 16, 3-((4-(4-(((5-fluoro-4-oxo-2-(((tetrahydro-2H-pyran-4-yl)thio)methyl)-3,4-dihydroquinazolin-7-yl)oxy)methyl)piperidine-1-carbonyl)phenyl)amino)piperidine-2,6-dione]: under 100 nM; `O=C1CCC(Nc2cccc(C3CCN(CCN4CCC(COc5cc(F)c6c(=O)[nH]c(CSC7CCOCC7)nc6c5)CC4)CC3)c2)C(=O)N1` (stereo not shown) [Example 67, 3-((3-(1-(2-(4-(((5-fluoro-4-oxo-2-(((tetrahydro-2H-pyran-4-yl)thio)methyl)-3,4-dihydroquinazolin-7-yl)oxy)methyl)piperidin-1-yl)ethyl)piperidin-4-yl)phenyl)amino)piperidine-2,6-dione]: under 100 nM; `O=C1CCC(N2C(=O)c3ccc(N4CCN(CC5CCN(C(=O)CN6CCC(COc7cc(F)c8c(=O)[nH]c(CSC9CCOCC9)nc8c7)CC6)CC5)CC4)cc3C2=O)C(=O)N1` (stereo not shown) [Example 15, 2-(2,6-dioxopiperidin-3-yl)-5-(4-((1-(2-(4-(((5-fluoro-4-oxo-2-(((tetrahydro-2H-pyran-4-yl)thio)methyl)-3,4-dihydroquinazolin-7-yl)oxy)methyl)piperidin-1-yl)acetyl)piperidin-4-yl)methyl)piperazin-1-yl)isoindoline-1,3-dione formate]: under 100 nM.
Next, `Cn1c(=O)n(C2CCC(=O)NC2=O)c2cccc(C#CCN3CCC(COc4cc(F)c5c(=O)[nH]c(CSC6CCOCC6)nc5c4)CC3)c21` (stereo not shown) [Example 31, 3-(4-(3-(4-(((5-fluoro-4-oxo-2-(((tetrahydro-2H-pyran-4-yl)thio)methyl)-3,4-dihydroquinazolin-7-yl)oxy)methyl)piperidin-1-yl)prop-1-yn-1-yl)-3-methyl-2-oxo-2,3-dihydro-1H-benzo[d]imidazol-1-yl)piperidine-2,6-dione]: under 100 nM; `O=C1CCC(N2C(=O)c3cccc(NCC(=O)N4CCC(COc5cc(F)c6c(=O)[nH]c(CSC7CCOCC7)nc6c5)CC4)c3C2=O)C(=O)N1` (stereo not shown) [Example 6, 2-(2,6-dioxopiperidin-3-yl)-4-((2-(4-(((5-fluoro-4-oxo-2-(((tetrahydro-2H-pyran-4-yl)thio)methyl)-3,4-dihydroquinazolin-7-yl)oxy)methyl)piperidin-1-yl)-2-oxoethyl)amino)isoindoline-1,3-dione]: under 100 nM.
